Experiments:
[1] = target: T1, γ-secretase (HeLa membrane) (Homo sapiens, UniProt P49768); assay: In vitro N1-Sb1 γ-secretase assay (ALPHA detection with SM320), HeLa membrane; type: biochemical; conditions: 0.25% CHAPSO; for IC50: read-out: IC50 in inhibiting N1-Sb1 cleavage
T1 construct: host or cells: HeLa-S3 cells, total membrane fraction
Procedure: (§1) HeLa membrane fraction was isolated from HeLa-S3 cells (National Cell Culture Center). The cell pellet was resuspended in Buffer A (50 mM MES, 150 mM KCl, 5 mM CaCl2, 5 mM MgCl2) and lysed by passage through a French Press. N2a cells (murine neuroblastoma cells) over-expressing wild-type PS1, or mutants M146L or E280A, were obtained from Dr. Sangram Sisodia (University of Chicago, Chicago, Ill.). These cells were maintained in 50% Dulbecco's modified Eagle's medium high glucose, 50% Opti-Mem Reduced Serum Media, and 10% fetal calf serum. Cultured cells were pelleted by centrifugation and resuspended in hypotonic buffer (40 mM Tris, pH 7.4, 10 mM NaCl, 1 mM EDTA, and 0.5 mM DTT) for 20 minutes before being lysed with a dounce homogenizer. Nuclear debris from the HeLa and N2a cells were pelleted at 3000 rpm for 30 minutes. The resulting supernatants were ultracentrifuged at 100,000×g for 1 hour. The pellet that contained total cell membrane was resuspended in Buffer A. Mouse brains overexpressing knock-in wild type or M146V PS1 (gift from Dr. Hui Zheng, Amylin Pharmaceuticals, San Diego, Calif.) were homogenized with dounce homogenizer. The cell lysate was centrifuged at 3000 rpm for 30 minutes. The supernatants were ultracentrifuged at 100,000×g for 1 hour. Protein concentration was determined with the DC Protein Assay Kit according to the manufacturer's instructions (Bio-Rad, Hercules, Calif.).
An in vitro γ-secretase assay using a novel recombinant APP-derived substrate (termed “Sb4”) is disclosed in co-pending application U.S. Ser. No. 12/776,141. In the present assay based on a Notch-derived substrate, N1-Sb1 was incubated with the cell membrane fraction, prepared as described above, in the presence of 0.25% CHAPSO and 1×PIPES buffer (50 mM PIPES, pH 7.0, 150 mM KCl, 5 mM CaCl2, 5 mM MgCl2. The reaction was incubated at 37° C. for 2 hours. The Perkin Elmer AlphaScreen™ detection system was employed to assay for Notch cleavage. AlphaScreen (PerkinElmer Life and Analytical Sciences, Shelton, Conn.) is a bead based non-radioactive Amplified Luminescent Proximity Homogeneous Assay (ALPHA). When a biological interaction brings the beads together, a cascade of chemical reactions acts to produce a greatly amplified signal. Specifically, upon laser excitation, a photosensitizer in the “Donor” bead converts ambient (triplet) oxygen to the more reactive singlet state. […] As a result no fluorescence signal at 520-620 nm is produced.
In the present system, antibody SM320, Protein A-conjugated acceptor beads, and Streptavidin-conjugated donor beads (PerkinElmer) were added to the reaction at a final concentration of 0.2 μg/ml, 2.5 μg/ml and 5 μg/ml, respectively (diagrammed in FIG. 5A). […] The ALPHA signal was detected using the Envision plate reader (Perkin Elmer). The reactions were excited at 680 nm and signal was detected at 615 nm.
HeLa membrane was incubated with N1-Sb1 substrate in the presence of 0.25% CHAPSO. The γ-secretase cleavage product (cN1-Sb1) was detected by the PerkinElmer proximity assay (ALPHA) using the SM320 antibody, Protein A-conjugated acceptor-beads (which bind SM320) and streptavidin-conjugated donor-beads (which bind biotin) (FIG. 5A). cN1-Sb1 levels in DMSO-treated assay was 10-fold higher than in the presence of the inhibitor L-685,458 (L458; structure shown below)-treated assay. […]

[2] = target: T2, E280A PS1 γ-secretase (Homo sapiens, UniProt P49768, E280A); assay: In vitro N1-Sb1 γ-secretase assay, membrane of N2a cells expressing E280A PS1; type: biochemical, murine; conditions: E280A PS1; read-out: IC50 of γ-secretase inhibition (N1-Sb1 cleavage)
T2 construct: total membrane
Procedure: as §1
An in vitro γ-secretase assay using a novel recombinant APP-derived substrate (termed “Sb4”) is disclosed in co-pending application U.S. Ser. No. 12/776,141. In the present assay based on a Notch-derived substrate, N1-Sb1 was incubated with the cell membrane fraction, prepared as described above, in the presence of 0.25% CHAPSO and 1×PIPES buffer (50 mM PIPES, pH 7.0, 150 mM KCl, 5 mM CaCl2, 5 mM MgCl2. The reaction was incubated at 37° C. for 2 hours. The Perkin Elmer AlphaScreen™ detection system was employed to assay for Notch cleavage. AlphaScreen (PerkinElmer Life and Analytical Sciences, Shelton, Conn.) is a bead based non-radioactive Amplified Luminescent Proximity Homogeneous Assay (ALPHA). When a biological interaction brings the beads together, a cascade of chemical reactions acts to produce a greatly amplified signal. Specifically, upon laser excitation, a photosensitizer in the “Donor” bead converts ambient (triplet) oxygen to the more reactive singlet state. The singlet state oxygen molecules diffuse into the solvent, and may react with a thioxene derivative in the Acceptor bead if nearby, generating chemiluminescence at 370 nm that further activates fluorophores contained in the same bead. The fluorophores subsequently emit light at 520-620 nm. In the absence of a specific biological interaction, the singlet state oxygen molecules produced by the donor bead go undetected without the close proximity of the acceptor bead. As a result no fluorescence signal at 520-620 nm is produced.
In the present system, antibody SM320, Protein A-conjugated acceptor beads, and Streptavidin-conjugated donor beads (PerkinElmer) were added to the reaction at a final concentration of 0.2 μg/ml, 2.5 μg/ml and 5 μg/ml, respectively (diagrammed in FIG. 5A). The reaction was incubated in the dark at room-temperature for 4 hours. The ALPHA signal was detected using the Envision plate reader (Perkin Elmer). The reactions were excited at 680 nm and signal was detected at 615 nm.
The effects of PS1 FAD mutations on Notch cleavage were determined using the new γ-secretase assay described in Example 2. The activities of two PS1 FAD mutations—PS1 M146L and E280A were compared against wild-type PS1 (WT), which has been previously studied (25). Total membrane was isolated from N2a cells that stably express WT, M146L, or E280A mutants. N1-Sb1 was incubated with these membranes and the resulting cN1-Sb1 was detected with SM320. […] The M146L and E280A mutants had 40% and 14% activity remaining, respectively, compared to the activity of the wild type (FIG. 7A). […]

Row | cN1-Sb1 levels in DMSO-treated assay versus inhibitor-treated assay ([1]; fold higher in DMSO) [fold] | Structure (SMILES) | IC50 [1] [nM] | IC50 [2] [nM]
1 | – | CC(NC(=O)Cc1cc(F)cc(F)c1)C(=O)NC1N=C(c2ccccc2)c2ccccc2N(C)C1=O (centres unmarked) [Compound E] | 1 | 0.71
2 | 10 | CC(C)C[C@H](NC(=O)[C@H](Cc1ccccc1)C[C@@H](O)[C@H](Cc1ccccc1)NC(=O)OC(C)(C)C)C(=O)N[C@@H](Cc1ccccc1)C(N)=O [L458] | 0.7 | 0.46

From patent US9632088B2, “Methods and compositions for gamma-secretase assay” (MEMORIAL SLOAN-KETTERING CANCER CENTER, priority 2010, dated 2017)
